Test results published in patent publication US11591334B2, “Substituted pyrrolizines for the treatment of hepatitis B” (SHANGHAI LONGWOOD BIOPHARMACEUTICALS CO., LTD., priority 2017, dated 2023).
Like-named read-outs stand apart in the source and are kept apart here.

Tests used:
[1] = Determination of cytotoxicity (Experiment 3, resazurin assay); assay type: cell-based; settings: human; HepG2 cells, incubated for 4 days, resazurin assay; read-out: Experiment 3 Cytotoxicity CC50
Experimental: Compound dilution. All the compounds for in vitro anti-HBV activity assay and cytotoxicity assay were 3-fold diluted into 8 concentrations. The final concentration of the tested compound was 30 μM, the final starting concentration of reference compound GLS4 was 1 μM, and the final concentration of DMSO was 0.5%. Experiment 3: Determination of Cytotoxicity The cytotoxicity of the test compound was tested using HepG2 cells. The cells were incubated for 4 days in the presence of the test compound. Cell activity was assessed using the resazurin assay.

C150 protein = target: T1, C150 protein (Hepatitis B virus genotype D subtype adw, UniProt P03147, C107A/C48A/C61A/R150C); assay: In vitro anti-HBV nucleocapsid assembly activity test (Experiment 1, protein experiment); assay type: biochemical
T1 construct: purchased WuXi Apptec Co., Ltd
T1 sequence (P03147 1-150 C48A/C61A/C107A/R150C): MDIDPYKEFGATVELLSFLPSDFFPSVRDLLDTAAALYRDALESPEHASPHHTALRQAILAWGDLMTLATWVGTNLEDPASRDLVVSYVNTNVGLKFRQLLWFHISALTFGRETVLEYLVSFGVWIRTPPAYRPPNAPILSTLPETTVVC
Experimental: Experiment 1: In Vitro Anti-HBV Nucleocapsid Assembly Activity Test
Main Reagents and Raw Materials:
C150 protein was expressed and purified by WuXi Apptec Co., Ltd.
BoDIPY® FL was purchased from Thermo Fisher Scientific.
Protein Fluorescent Label:
150 μL of 2% w/v skimmed milk was added into each well of 96-well plate, and incubated at room temperature for 2 hours. The skimmed milk was aspirated. The plate was washed with deionized water and dried, and stored at room temperature. C150 protein (3 mg per tube) was desalted with 5 ml Hitrap desalting column. The desalted C150 protein of each tube was added with 50 mM BoDIPY® FL Fluorescent Dye (20 μl), and incubated under 4° C. overnight in the dark after well mixed. Sephadex G-25 gel was used for filtration to remove fluorescent dyes that were not bounded onto C150. The C150 fluorescent labeling efficiency was calculated according to the following equation: [BoDIPY®FL]=A504/78,000 M^−1; [C150Bo]=(A280−[BoDIPY®FL]×1300 M^−1)/60,900 M^−1; Fluorescent Labeling Efficiency=[BoDIPY®FL]/[C150Bo];
The mother liquor of compound was diluted with DMSO to 6 mM, then diluted to 600 μM with 50 mM HEPES, and then further 3-fold diluted with 10 DMSO/50 mM HEPES to 8 concentrations.
C150Bo was diluted to 2 μM with 50 mM HEPES. 37.5 μL of C150Bo and 2.5 μL of compound at each concentration were added into a 96 well plate and well mixed, then incubated at room temperature for 15 minutes. 10 μl of 750 mM NaCl/50 mM HEPES were added into the each reaction well, and the final concentration of NaCl was 150 mM.
Into the control wells in the 0% protein group 10 μL of 50 mM HEPES was added, and the final concentration of NaCl was 0 mM.
Into the control wells in the 100% protein group 10 μL of 5 M/50 mM HEPES was added, and the final concentration of NaCl was 1 M.
The final concentration of DMSO was 0.5%, the maximum final concentration of the compound was 30 μM, and final concentration of C150Bo was 1.5 μM. The mixture was incubated at room temperature for 1 hour. Fluorescence signal was measured (excitation light was 485 nm; emission light was 535 nm).
Data Analysis % protein assembly=[1−(Sample fluorescence value−1 M NaCl fluorescence value)/(0 M NaCl fluorescence value−1 M NaCl fluorescence value)]×100.
IC50 value was calculated by prism software, and the equation was as follows: Y=Bottom+(Top−Bottom)/(1+10^((LogIC50−X)HillSlope));

HBV = assay: Determination of anti-HBV activity in HepG2.2.15 cell (Experiment 2, HBV DNA in supernatant by qPCR); assay type: cell-based; settings: Hepatitis B virus; HepG2.2.15 cells, HBV DNA in supernatant on the eighth day, qPCR; read-out: Experiment 2 Cell experiment EC50
Experimental: Experiment 2: Determination of Anti-HBV Activity in HepG2.2.15 Cell
Compound dilution. All the compounds for in vitro anti-HBV activity assay and cytotoxicity assay were 3-fold diluted into 8 concentrations. The final concentration of the tested compound was 30 μM, the final starting concentration of reference compound GLS4 was 1 μM, and the final concentration of DMSO was 0.5%.
HepG2.2.15 cell (4×10^4 cell/well) was inoculated into 96 well plate, and cultured overnight in 37° C., 5% CO2. On the second day, fresh culture medium containing different concentrations of the compound was added into the culture wells. On the fifth day, the old culture solution in the culture well was aspirated and fresh culture medium containing different concentrations of the compound was added.
On the eighth day, the supernatant in the culture well was collected for extraction of HBV DNA, and the content of DNA in the supernatant of HepG2.2.15 HBV was detected by qPCR. After the supernatant was collected, the medium and Cell-titer Glo reagent were added into the culture well, and the chemiluminescence value of each well was measured by microplate reader.
The activity calculation formula was as follows: Y=Bottom+(Top−Bottom)/(1+10^((LogIC50−X)*Hillslope));

[2] = fluorescently labeled C150 (C150Bo) 1.5 μM, 150 mM NaCl, 1 hour at room temperature, read-out: Experiment 1 Protein experiment IC50

SMILES	CC50 at 4 days [1] [µM]	IC50 (C150 protein; [2]) [µM]	EC50 (HBV) [µM]	IC50 (C150 protein) [µM]
Cc1c(S(=O)(=O)NC2C3CCC2CC(O)(CO)C3)c2n(c1C(=O)Nc1ccc(F)c(F)c1)CCC=C2 (stereo not drawn) [Compound 30r]	> 30	1 to 100	0.0001 to 0.1	–
CC(NS(=O)(=O)c1c(Cl)c(C(=O)Nc2ccnc(C(F)F)c2)n2c1C=CC2)C(F)(F)F (stereo not drawn) [Compound 10d]	> 30	1 to 100	0.1 to 1	–
CC(CO)NS(=O)(=O)c1c(Cl)c(C(=O)Nc2ccnc(C(F)F)c2)n2c1CCC2 (stereo not drawn) [Compound 20ee]	> 30	1 to 100	0.0001 to 0.1	–
CC(NS(=O)(=O)c1c2[nH]ccc2c(C(=O)Nc2cc(F)nc(C#N)c2)n1C)C(F)(F)F (stereo not drawn) [Compound 80d]	> 30	1 to 100	0.0001 to 0.1	–
N#Cc1cc(NC(=O)c2c(Cl)c(S(=O)(=O)NC3C4CCC3CC(O)(CO)C4)c3n2CCC3)cc(F)n1 (stereo not drawn) [Compound 20ll]	> 30	1 to 100	0.0001 to 0.1	–
Cc1c(NS(=O)(=O)NC2(C)COC2)c2n(c1C(=O)Nc1cc(F)nc(C#N)c1)CCC2 [Compound 90h]	> 30	1 to 100	0.0001 to 0.1	–
CC(CO)NS(=O)(=O)c1c(Cl)c(C(=O)Nc2ccc(F)c(C#N)c2)n2c1CCC2 (stereo not drawn) [Compound 20dd]	> 30	1 to 100	0.1 to 1	–
O=C(Nc1ccc(F)c(F)c1)c1c(Cl)c(S(=O)(=O)NC2C3CCC2CC(O)(CO)C3)c2n1CCC2 (stereo not drawn) [Compound 20kk]	> 30	1 to 100	0.0001 to 0.1	–
Cn1c(C(=O)Nc2cc(F)nc(C#N)c2)c2cc[nH]c2c1S(=O)(=O)NC1(C)COC1 [Compound 80f]	> 30	1 to 100	0.0001 to 0.1	–
Cc1c(S(=O)(=O)NC2(C)COC2)c2n(c1C(=O)Nc1ccnc(C(F)F)c1)CC=C2 [Compound 10aa]	> 30	1 to 100	0.1 to 1	–
Cc1c(S(=O)(=O)NC(C)CO)c2n(c1C(=O)Nc1cc(F)nc(C#N)c1)CCC2 (stereo not drawn) [Compound 20jj]	> 30	1 to 100	0.1 to 1	–
C[C@@H](NS(=O)(=O)c1c(Cl)c(C(=O)Nc2ccc(F)c(F)c2)n2c1CCCC2)C(F)(F)F [Compound 40a]	> 30	< 1	0.0001 to 0.1	–
CC(NC(=O)Nc1c(Cl)c(C(=O)Nc2ccnc(Cl)c2)n2c1CCC2)C(F)(F)F (stereo not drawn) [Compound 100b]	> 30	–	0.0001 to 0.1	1 to 100
Cc1c(S(=O)(=O)NC(C)C(F)(F)F)c2n(c1C(=O)Nc1ccc(F)c(F)c1)CCCC2 (stereo not drawn) [Compound 40e]	> 30	1 to 100	0.0001 to 0.1	–
C[C@@H](NS(=O)(=O)c1c(Cl)c(C(=O)Nc2ccnc(Cl)c2)n2c1C=CCC2)C(F)(F)F [Compound 30c]	> 30	–	0.0001 to 0.1	1 to 100
O=C(Nc1ccc(F)c(F)c1)c1c(Cl)c(S(=O)(=O)NC2C3CCC2CC(O)(c2cc(-c4ccccc4)on2)C3)c2n1CC=C2 (stereo not drawn) [Compound 10oo]	> 30	1 to 100	0.1 to 1	–
CC(NS(=O)(=O)c1c(Cl)c(C(=O)Nc2cc(F)nc(C#N)c2)n2c1CCCC2)C(F)(F)F (stereo not drawn) [Compound 40d]	> 30	1 to 100	0.0001 to 0.1	–
CC(NS(=O)(=O)c1c(Cl)c(C(=O)Nc2cc(F)c(F)c(F)c2)n2c1CCC2)C(F)(F)F (stereo not drawn) [Compound 20b]	> 30	–	0.0001 to 0.1	< 1
Cc1c(S(=O)(=O)NC2C3CCC2CC(O)(c2cc(-c4ccccc4)on2)C3)c2n(c1C(=O)Nc1cc(F)nc(C#N)c1)CCC=C2 (stereo not drawn) [Compound 30t]	> 30	1 to 100	0.1 to 1	–
